The record followed here is publication PMC11513842, “Development of an orally bioavailable CDK12/13 degrader and induction of synthetic lethality with AKT pathway inhibition” (Cell Reports Medicine, 2024).

Format in all cases: in vivo, mouse
For one assay, the system named is PC310 PDX. In words: PC310 patient-derived xenograft efficacy. The note with it: YJ1206 p.o. 100 mg/kg 3x/week, uprosertib p.o. 15 mg/kg 5x/week. The procedure:
(§1) Six-week-old male CB17SCID mice obtained from Charles River (Stock # 236), were used to establish subcutaneous tumors on both dorsal flanks. Tumor dimensions were measured biweekly using digital calipers, applying the formula (π/6) (L × W^2), where L and W represent tumor length and width, respectively. At the study conclusion, mice were euthanized, and tumors were excised and weighed. The University of Michigan Institutional Animal Care and Use Committee (IACUC) approved all in vivo studies.
WA74 PDX model was developed at the University of Michigan during collection of a rapid autopsy case as part of the Michigan Legacy Tissue Program (MLTP). PC310 PDX model was obtained from Erasmus Medical Center, Rotterdam, the Netherlands. Both PDX lines were propagated in male CB17SCID mice by surgically implanting 2 mm^3 tumor fragments, coated with 100% Matrigel, into both flanks of mice. When tumors reached approximately 200 mm^3, mice were randomized into treatment groups. These groups received either 30 mg/kg YJ9069 via intravenous injection or 100 mg/kg YJ1206 by oral gavage, both administered three times per week, with or without 15 mg/kg uprosertib by oral gavage five days per week for 3–4 weeks. In accordance with IACUC guidelines, the maximum tumor size was limited to 2.0 cm in any dimension, and mice were euthanized if xenografts reached this endpoint.
Background: Xenograft models place foreign cells or tissue in a host animal.

Assay [1] has as its system castrated VCaP xenograft (VCaP-CRPC). In words: VCaP castration-resistant prostate cancer xenograft efficacy. The note with it: castrated VCaP xenograft, 31 days; YJ1206 p.o. 100 mg/kg 3x/week, uprosertib p.o. 15 mg/kg 5x/week. How it is done:
as §1
For the VCaP castration-resistant tumor model, 3×10^6 VCaP cells were subcutaneously injected into both dorsal flanks of mice using a serum-free medium mixed with 50% Matrigel (BD Biosciences). Upon tumors reaching palpable size (∼200 mm^3), animals underwent castration. When tumors regrew to their pre-castration size, mice were randomized for treatment with 30 mg/kg YJ9069 or vehicle via intravenous injection or 100 mg/kg YJ1206 or vehicle, […]

For assay [2], the system named is castrated VCaP and 22Rv1 CDX models. In words: Castrated VCaP and 22Rv1 CDX models, combination efficacy. The note with it: YJ1206 p.o. 100 mg/kg 3x/week, uprosertib p.o. 15 mg/kg 5x/week. The procedure: as §1
For the VCaP castration-resistant tumor model, 3×10^6 VCaP cells were subcutaneously injected into both dorsal flanks of mice using a serum-free medium mixed with 50% Matrigel (BD Biosciences). Upon tumors reaching palpable size (∼200 mm^3), animals underwent castration. When tumors regrew to their pre-castration size, mice were randomized for treatment with 30 mg/kg YJ9069 or vehicle via intravenous injection or 100 mg/kg YJ1206 or vehicle, with or without 15 mg/kg uprosertib by oral gavage. […]
For the 22Rv1 castration-resistant tumor model, mice underwent castration and then 12 days of recovery. Subsequently, 1 × 10^6 22Rv1 cells were subcutaneously injected into both dorsal flanks using a serum-free medium with 50% Matrigel (BD Biosciences). […]

For `Cn1ncc(Cl)c1-c1cc(C(=O)N[C@H](CN)Cc2ccc(F)c(F)c2)oc1Cl` [uprosertib, reference compound], the “progressive disease (PD), waterfall plot (RECIST)” value (in the assay on PC310 PDX; in assay [1]) was 100% in each case. Further, the tumor growth inhibition result in the assay on PC310 PDX is given as “only moderate or mild tumor inhibition”. The anti-tumor efficacy result in assay [2] is on record as “moderate anti-tumor efficacy”.
